COc1ccc2c(c1)c(CC(=O)O)c(C)n2C(=O)c1ccc(Cl)cc1
Conditions | solubility (mole fraction)
in PEG-400, 293.15 K | 0.0751
in PEG-400, 298.15 K | 0.0831
in PEG-400, 303.15 K | 0.0923
in PEG-400, 308.15 K | 0.102
in PEG-400, 313.15 K | 0.114
in PEG-400, 318.15 K | 0.127

in water
Conditions | solubility (mole fraction)
293.15 K | 4.73e-08
298.15 K | 5e-08
303.15 K | 5.31e-08
308.15 K | 5.58e-08
313.15 K | 5.85e-08
318.15 K | 6.16e-08

From BigSolDB 2.1
